Values joined by “and” are separate entries in the source; they are usually repeats but may differ in a detail not shown here. Equal entries are not always repeated.
Legend:
Cannabinoid receptor 1 [1] = target: T1, Cannabinoid receptor 1 (Rattus norvegicus, UniProt P20272); test: Displacement of [3H]HU-243 from Sabra rat brain synaptosome CB1 receptor assessed as inhibition constant; type: subcellular
Cannabinoid receptor 1 [2] = target: T1, Cannabinoid receptor 1; test: Displacement of [3H]HU-243 from Sabra rat brain synaptosome CB1 receptor assessed as inhibition constant incubated for 90 mins; type: subcellular
Cannabinoid receptor 2 [3] = target: T2, Cannabinoid receptor 2 (Homo sapiens, UniProt P34972); test: Displacement of [3H]HU-243 from CB2 receptor (unknown origin) extracted from green monkey COS-7 cell membrane assessed as inhibition constant incubated for 90 mins; type: cell membranes
Cannabinoid receptor 1 [4] = target: T3, Cannabinoid receptor 1 (Homo sapiens, UniProt P21554); test: Displacement of [3H]CP-55,940 from human CB1 receptor extracted from HEK293 cell membrane assessed as inhibition constant incubated for 90 mins by liquid scintillation spectrophotometric analysis; type: cell membranes
[5] = Inhibition of [14C]-arachidonoylethanolamide uptake in rat RBL-2H3 cells assessed as increase in AEA level incubated for 5 mins by scintillation counting; type: functional, cell-based; settings: RBL-2H3, 5 min
Cannabinoid receptor 1 [6] = target: T3, Cannabinoid receptor 1; test: Binding affinity to CB1 receptor (unknown origin) assessed as inhibition constant
Cannabinoid receptor 2 [7] = target: T2, Cannabinoid receptor 2; test: Binding affinity to CB2 receptor (unknown origin) assessed as inhibition constant
[8] = Selectivity ratio of Ki for CB1 receptor (unknown origin) to Ki for CB2 receptor (unknown origin)
Cannabinoid receptor 1 [9] = target: T1, Cannabinoid receptor 1; test: Displacement of [3H]CP-55,940 from Sabra rat brain synaptosome CB1 receptor assessed as inhibition constant incubated for 90 mins; type: subcellular
Cannabinoid receptor 2 [10] = target: T2, Cannabinoid receptor 2; test: Displacement of [3H]CP-55,940 from human CB2 receptor extracted from CHO cell membrane assessed as inhibition constant incubated for 90 mins; type: cell membranes
[11] = Selectivity index, ratio of Ki for Sabra rat brain synaptosome CB1 receptor to Ki for human CB2 receptor extracted from CHO cell membrane
[12] = target: T4, Transient receptor potential cation channel subfamily V member 1 (Homo sapiens, UniProt Q8NER1); test: Agonist activity at human TRPV1 receptor expressed in HEK293 cells assessed as effect on [Ca2+]i preincubated with capsazepine for 30 mins followed by compound addition by Fluo-3 probe based fluorescence analysis; type: cell-based
[13] = target: Sodium channel protein type 9 subunit alpha (Homo sapiens, UniProt Q15858); test: Inhibition of human Nav1.7 expressed in HEK293 cells by whole cell electrophysiology recording; type: cell-based
[14] = target: T5, Fatty-acid amide hydrolase 1 (Mus musculus, UniProt O08914); test: Inhibition of FAAH-mediated [14C]-AEA hydrolysis in mouse N18TG2 cell membrane incubated for 30 mins by scintillation counting; type: cell membranes
T5 sequence (O08914 whole entry): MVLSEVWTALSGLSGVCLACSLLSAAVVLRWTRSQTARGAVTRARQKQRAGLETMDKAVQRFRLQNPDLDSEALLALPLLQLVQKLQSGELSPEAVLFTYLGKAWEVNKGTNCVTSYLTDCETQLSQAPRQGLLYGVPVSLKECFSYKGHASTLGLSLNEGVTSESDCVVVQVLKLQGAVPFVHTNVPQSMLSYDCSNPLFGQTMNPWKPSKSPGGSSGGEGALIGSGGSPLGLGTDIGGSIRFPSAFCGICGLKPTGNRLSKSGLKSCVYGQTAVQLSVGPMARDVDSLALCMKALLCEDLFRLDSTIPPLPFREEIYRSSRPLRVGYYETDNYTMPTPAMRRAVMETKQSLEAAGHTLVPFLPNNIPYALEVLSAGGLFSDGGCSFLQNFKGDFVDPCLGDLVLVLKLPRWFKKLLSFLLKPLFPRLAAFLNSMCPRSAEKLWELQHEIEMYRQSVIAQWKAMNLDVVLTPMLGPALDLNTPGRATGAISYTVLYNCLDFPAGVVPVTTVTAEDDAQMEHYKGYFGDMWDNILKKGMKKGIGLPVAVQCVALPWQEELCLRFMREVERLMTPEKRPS

[15] = target: T6, Transient receptor potential cation channel subfamily V member 2 (Rattus norvegicus, UniProt Q9WUD2); test: Agonist activity at recombinant rat TRPV2 expressed in HEK293 cells assessed as increase in [Ca2+]i by Fluo-4AM based calcium assay; type: cell-based
T6 sequence (Q9WUD2 whole entry): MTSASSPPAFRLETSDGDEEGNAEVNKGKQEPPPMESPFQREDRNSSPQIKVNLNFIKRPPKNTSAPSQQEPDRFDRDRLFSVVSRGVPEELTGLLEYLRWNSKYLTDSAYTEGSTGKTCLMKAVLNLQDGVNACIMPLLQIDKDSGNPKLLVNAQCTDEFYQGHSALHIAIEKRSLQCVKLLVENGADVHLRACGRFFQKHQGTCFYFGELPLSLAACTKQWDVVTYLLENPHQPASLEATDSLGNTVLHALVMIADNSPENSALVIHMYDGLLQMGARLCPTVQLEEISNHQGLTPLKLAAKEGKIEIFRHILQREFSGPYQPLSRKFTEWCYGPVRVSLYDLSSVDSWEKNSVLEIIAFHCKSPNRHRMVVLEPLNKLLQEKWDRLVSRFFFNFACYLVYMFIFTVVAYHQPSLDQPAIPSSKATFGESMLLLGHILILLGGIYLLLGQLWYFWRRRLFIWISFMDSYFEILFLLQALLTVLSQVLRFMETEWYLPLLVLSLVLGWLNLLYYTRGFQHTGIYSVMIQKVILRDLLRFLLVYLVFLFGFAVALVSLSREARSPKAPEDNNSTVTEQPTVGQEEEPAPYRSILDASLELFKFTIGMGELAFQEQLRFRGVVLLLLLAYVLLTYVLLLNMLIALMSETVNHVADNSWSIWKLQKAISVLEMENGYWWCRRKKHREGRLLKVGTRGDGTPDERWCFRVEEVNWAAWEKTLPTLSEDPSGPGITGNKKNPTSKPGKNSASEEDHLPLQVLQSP

[16] = target: Transient receptor potential cation channel subfamily A member 1 (Rattus norvegicus, UniProt Q6RI86); test: Agonist activity at recombinant rat TRPA1 expressed in HEK293 cells assessed as increase in [Ca2+]i by Fluo-4AM based calcium assay; type: cell-based
[17] = target: Transient receptor potential cation channel subfamily M member 8 (Rattus norvegicus, UniProt Q8R455); test: Antagonist activity at recombinant rat TRPM8 expressed in HEK293 cells assessed as inhibition of icillin-induced intracellular calcium level preincubated with compound for 5 mins followed by icillin addition by Fluo-4AM based calcium assay; type: cell-based
[18] = target: T4, Transient receptor potential cation channel subfamily V member 1; test: Agonist activity at recombinant human TRPV1 expressed in HEK293 cells assessed as increase in [Ca2+]i level by Fluo-4AM based calcium assay; type: cell-based
[19] = target: G-protein coupled receptor 55 (Homo sapiens, UniProt Q9Y2T6); test: Antagonist activity at GPR55 (unknown origin)
[20] = target: T7, Equilibrative nucleoside transporter 1 (Homo sapiens, UniProt Q99808); test: Inhibition of ENT-1 (unknown origin)
T7 sequence (Q99808 whole entry): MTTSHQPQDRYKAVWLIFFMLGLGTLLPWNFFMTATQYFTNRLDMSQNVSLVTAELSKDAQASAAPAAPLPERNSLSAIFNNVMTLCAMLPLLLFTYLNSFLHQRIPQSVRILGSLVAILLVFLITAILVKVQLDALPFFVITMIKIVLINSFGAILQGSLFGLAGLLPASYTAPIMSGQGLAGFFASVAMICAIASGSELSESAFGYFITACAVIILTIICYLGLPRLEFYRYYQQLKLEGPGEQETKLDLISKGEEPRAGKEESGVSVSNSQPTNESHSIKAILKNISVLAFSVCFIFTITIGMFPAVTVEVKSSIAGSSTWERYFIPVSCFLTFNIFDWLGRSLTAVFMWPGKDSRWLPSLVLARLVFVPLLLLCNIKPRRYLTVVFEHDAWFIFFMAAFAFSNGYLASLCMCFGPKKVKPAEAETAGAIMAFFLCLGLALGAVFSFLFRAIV

[21] = target: T8, 5-hydroxytryptamine receptor 1A (Homo sapiens, UniProt P08908); test: Agonist activity at 5-HT1A (unknown origin); type: functional
T8 sequence (P08908 whole entry): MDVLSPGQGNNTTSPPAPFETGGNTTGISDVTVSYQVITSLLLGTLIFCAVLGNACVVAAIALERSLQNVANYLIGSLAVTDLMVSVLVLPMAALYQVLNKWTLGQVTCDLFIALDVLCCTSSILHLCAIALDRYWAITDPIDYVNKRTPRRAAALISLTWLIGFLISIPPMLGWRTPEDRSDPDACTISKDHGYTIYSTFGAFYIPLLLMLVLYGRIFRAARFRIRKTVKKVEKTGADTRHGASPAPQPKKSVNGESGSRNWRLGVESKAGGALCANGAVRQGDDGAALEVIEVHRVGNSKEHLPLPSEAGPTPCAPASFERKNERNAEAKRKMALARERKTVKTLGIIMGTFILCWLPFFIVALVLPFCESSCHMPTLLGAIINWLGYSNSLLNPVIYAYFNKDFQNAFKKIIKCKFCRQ

D(2) dopamine receptor [22] = target: T9, D(2) dopamine receptor (Homo sapiens, UniProt P14416); test: Partial agonist activity at D2-high receptor (unknown origin)
D(2) dopamine receptor [23] = target: T9, D(2) dopamine receptor; test: Partial agonist activity at D2-low receptor (unknown origin)
Cannabinoid receptor 1 [24] = target: T3, Cannabinoid receptor 1; test: Antagonist activity at human CB1 receptor expressed in HEK293T cells co-transfected with pCRE-Luc plasmid preincubated with compound for 30 mins followed by WIN55,212 addition and measured after 6 hrs by Dual-luciferase assay; type: functional, cell-based
Cannabinoid receptor 2 [25] = target: T2, Cannabinoid receptor 2; test: Agonist activity at human CB2 receptor expressed in HEK293T cells co-transfected with pCRE-Luc plasmid preincubated with compound for 30 mins followed by forskolin addition and measured after 6 hrs by Dual-luciferase assay; type: functional, cell-based
[26] = Selectivity index, ratio of Ki for Sabra rat brain synaptosome CB1 receptor to Ki for CB2 receptor (unknown origin) extracted from green monkey COS-7 cells

T2 sequence (P34972 whole entry): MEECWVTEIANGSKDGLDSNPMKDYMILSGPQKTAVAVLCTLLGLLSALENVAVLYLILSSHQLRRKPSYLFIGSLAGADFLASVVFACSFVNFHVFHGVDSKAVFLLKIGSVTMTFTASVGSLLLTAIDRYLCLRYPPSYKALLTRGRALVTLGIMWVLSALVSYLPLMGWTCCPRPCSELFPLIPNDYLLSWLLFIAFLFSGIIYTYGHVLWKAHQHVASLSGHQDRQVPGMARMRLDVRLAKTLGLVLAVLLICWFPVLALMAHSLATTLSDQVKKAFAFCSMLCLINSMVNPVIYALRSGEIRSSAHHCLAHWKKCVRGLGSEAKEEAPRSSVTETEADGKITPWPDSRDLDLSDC
T3 sequence (P21554 whole entry): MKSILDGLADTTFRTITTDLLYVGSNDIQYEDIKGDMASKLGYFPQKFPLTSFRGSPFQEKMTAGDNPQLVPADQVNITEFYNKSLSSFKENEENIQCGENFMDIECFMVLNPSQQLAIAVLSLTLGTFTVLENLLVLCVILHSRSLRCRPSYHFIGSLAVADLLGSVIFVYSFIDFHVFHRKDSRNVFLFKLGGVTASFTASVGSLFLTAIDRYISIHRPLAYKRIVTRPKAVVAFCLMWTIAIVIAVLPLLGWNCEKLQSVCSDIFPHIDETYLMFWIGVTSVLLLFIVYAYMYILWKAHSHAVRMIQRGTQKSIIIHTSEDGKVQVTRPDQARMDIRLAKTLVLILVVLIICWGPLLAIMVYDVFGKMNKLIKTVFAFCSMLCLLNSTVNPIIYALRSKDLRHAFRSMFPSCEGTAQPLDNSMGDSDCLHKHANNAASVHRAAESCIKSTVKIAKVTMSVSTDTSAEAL
T1 sequence (P20272 whole entry): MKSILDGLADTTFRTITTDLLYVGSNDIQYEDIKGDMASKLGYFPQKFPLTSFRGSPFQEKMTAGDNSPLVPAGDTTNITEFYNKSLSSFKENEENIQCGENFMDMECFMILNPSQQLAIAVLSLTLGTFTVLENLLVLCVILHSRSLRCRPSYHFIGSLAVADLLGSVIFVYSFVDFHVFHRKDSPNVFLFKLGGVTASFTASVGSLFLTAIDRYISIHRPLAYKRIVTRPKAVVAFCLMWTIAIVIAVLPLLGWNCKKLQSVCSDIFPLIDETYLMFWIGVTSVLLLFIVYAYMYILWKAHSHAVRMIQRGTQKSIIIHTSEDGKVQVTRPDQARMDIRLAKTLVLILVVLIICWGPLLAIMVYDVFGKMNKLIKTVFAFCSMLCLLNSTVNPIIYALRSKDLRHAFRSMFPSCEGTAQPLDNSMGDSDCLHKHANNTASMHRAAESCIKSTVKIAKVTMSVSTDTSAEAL
T9 sequence (P14416 whole entry): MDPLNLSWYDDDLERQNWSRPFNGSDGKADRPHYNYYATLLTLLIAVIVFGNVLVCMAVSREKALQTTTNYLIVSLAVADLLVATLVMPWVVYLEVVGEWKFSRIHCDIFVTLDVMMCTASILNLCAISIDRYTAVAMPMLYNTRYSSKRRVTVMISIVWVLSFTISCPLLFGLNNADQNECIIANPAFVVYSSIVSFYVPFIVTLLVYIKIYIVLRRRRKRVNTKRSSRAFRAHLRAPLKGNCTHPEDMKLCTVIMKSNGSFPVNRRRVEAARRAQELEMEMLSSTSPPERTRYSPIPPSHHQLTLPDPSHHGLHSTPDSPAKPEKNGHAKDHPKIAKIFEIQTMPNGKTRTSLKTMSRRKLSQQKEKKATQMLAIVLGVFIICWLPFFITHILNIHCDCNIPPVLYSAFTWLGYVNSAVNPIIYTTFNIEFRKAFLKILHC
T4 sequence (Q8NER1 whole entry): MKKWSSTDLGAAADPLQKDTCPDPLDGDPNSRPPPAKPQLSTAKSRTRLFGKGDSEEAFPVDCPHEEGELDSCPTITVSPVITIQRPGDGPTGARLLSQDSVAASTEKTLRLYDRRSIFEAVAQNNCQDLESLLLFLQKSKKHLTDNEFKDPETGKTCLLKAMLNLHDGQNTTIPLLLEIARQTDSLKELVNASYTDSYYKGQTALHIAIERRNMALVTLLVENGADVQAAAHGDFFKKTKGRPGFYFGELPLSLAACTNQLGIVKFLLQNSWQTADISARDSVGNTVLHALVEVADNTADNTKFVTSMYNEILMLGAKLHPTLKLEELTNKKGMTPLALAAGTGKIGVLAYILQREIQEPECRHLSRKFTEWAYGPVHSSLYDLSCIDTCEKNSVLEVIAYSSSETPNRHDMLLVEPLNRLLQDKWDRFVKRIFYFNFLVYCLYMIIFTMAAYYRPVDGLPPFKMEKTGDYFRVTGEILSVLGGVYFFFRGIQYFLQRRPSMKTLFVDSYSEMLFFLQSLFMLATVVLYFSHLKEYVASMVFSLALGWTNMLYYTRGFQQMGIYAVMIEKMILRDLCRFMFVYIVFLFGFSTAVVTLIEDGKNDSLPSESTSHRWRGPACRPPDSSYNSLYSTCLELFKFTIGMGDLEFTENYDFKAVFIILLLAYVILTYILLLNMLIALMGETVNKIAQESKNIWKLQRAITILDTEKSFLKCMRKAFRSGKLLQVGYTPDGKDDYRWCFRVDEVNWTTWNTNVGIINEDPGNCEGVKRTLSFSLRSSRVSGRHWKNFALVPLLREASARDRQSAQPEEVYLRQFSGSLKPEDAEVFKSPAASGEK
Chain of Transient receptor potential cation channel subfamily A member 1 (Q6RI86 whole entry): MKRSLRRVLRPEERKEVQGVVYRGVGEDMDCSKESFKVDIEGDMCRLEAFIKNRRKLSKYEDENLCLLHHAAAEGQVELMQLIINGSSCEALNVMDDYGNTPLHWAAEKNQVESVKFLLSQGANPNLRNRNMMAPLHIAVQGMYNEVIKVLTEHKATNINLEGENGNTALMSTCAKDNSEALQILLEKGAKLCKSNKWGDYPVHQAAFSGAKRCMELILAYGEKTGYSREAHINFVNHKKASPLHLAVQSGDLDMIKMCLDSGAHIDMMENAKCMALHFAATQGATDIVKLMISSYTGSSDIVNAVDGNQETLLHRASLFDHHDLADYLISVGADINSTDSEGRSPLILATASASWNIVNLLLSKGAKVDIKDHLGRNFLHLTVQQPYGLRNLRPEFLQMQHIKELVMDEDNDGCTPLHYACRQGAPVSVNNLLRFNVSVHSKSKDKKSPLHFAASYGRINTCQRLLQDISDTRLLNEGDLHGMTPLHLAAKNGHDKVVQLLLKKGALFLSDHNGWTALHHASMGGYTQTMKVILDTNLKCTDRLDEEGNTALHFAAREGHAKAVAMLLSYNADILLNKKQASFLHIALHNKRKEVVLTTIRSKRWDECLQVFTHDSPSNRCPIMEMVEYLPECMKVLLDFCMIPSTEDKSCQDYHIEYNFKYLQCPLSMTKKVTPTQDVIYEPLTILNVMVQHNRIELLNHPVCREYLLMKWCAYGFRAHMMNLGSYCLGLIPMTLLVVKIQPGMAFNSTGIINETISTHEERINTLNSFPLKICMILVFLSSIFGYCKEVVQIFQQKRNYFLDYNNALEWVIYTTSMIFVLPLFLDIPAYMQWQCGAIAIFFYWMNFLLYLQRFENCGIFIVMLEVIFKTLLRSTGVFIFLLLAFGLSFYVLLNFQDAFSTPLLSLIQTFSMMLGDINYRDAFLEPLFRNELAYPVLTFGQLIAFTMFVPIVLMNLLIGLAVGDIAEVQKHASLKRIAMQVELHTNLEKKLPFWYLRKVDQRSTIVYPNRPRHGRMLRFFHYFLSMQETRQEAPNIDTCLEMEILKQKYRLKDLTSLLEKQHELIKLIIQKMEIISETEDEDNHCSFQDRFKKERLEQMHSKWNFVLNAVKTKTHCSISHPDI
Chain of G-protein coupled receptor 55 (Q9Y2T6 whole entry): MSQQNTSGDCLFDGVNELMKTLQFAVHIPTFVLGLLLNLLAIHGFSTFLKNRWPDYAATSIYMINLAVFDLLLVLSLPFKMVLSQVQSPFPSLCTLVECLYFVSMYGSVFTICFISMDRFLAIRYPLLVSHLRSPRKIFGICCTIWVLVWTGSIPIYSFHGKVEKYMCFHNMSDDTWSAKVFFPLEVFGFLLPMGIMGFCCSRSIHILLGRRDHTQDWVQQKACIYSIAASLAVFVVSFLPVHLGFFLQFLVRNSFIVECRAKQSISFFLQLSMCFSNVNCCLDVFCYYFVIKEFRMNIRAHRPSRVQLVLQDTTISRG

Compound `CCCCCCC(C)(C)c1cc(OC)c([C@H]2C=C(CO)[C@H]3C[C@@H]2C3(C)C)c(OC)c1` has a Ki (Cannabinoid receptor 1 [1]) of over 10000 nM.
In the case of `C=C(C)[C@H]1CCC(C)=C[C@@H]1c1c(OC)cc(C(C)(C)CCCCCC)cc1OC`, the Ki (Cannabinoid receptor 1 [2]) is reported as over 1000 nM and the Ki (Cannabinoid receptor 2 [3]) is reported as over 1000 nM.
`C=C(C)[C@H]1CCC(C)=C[C@@H]1c1c(O)cc(CCCCC)c(C(=O)OCCO)c1O` gave a Ki (Cannabinoid receptor 1 [4]) of 259 nM.
`C=C(C)[C@@H]1CCC(CO)=C[C@H]1c1c(O)cc(CCCCC)cc1O` gave a Ki (Cannabinoid receptor 1 [2]) of over 1000 nM and a Ki (Cannabinoid receptor 2 [3]) of over 1000 nM.
In the case of `C=C(C)[C@@H]1CCC(CO)=C[C@H]1c1c(O)cc(C(C)(C)CCCCCC)cc1O`, the Ki (Cannabinoid receptor 1 [2]) is reported as at least 4000 nM, the Ki (Cannabinoid receptor 2 [3]) is reported as 671 nM and the IC50 [5] is reported as 12500 nM.
For `C=C(C)[C@@H]1CCC(C)=C[C@H]1c1c(OC)cc(C(C)(C)CCCCCC)cc1OC`, the Ki (Cannabinoid receptor 1 [2]) was over 1000 nM and the Ki (Cannabinoid receptor 2 [3]) was over 1000 nM.
For `C=C(C)[C@@H]1CCC(C(=O)O)=C[C@H]1c1c(O)cc(CCCCC)cc1O`, the Ki (Cannabinoid receptor 1 [2]) was over 1000 nM and the Ki (Cannabinoid receptor 2 [3]) was over 1000 nM.
With `CCCCCCC(C)(C)c1cc(O)c(-c2c(CO)cccc2C(C)C)c(OC)c1` the Ki (Cannabinoid receptor 1 [6]) was over 1000 nM, the Ki (Cannabinoid receptor 2 [7]) was 0.64 nM and 0.28 nM and the Ratio Ki [8] was 17.
`CCCCCc1cc(O)c([C@H]2C=C(CO)CC[C@@H]2C(C)C)c(O)c1` showed a Ki (Cannabinoid receptor 1 [9]) of 76.7 nM, a Ki (Cannabinoid receptor 2 [10]) of 12.1 nM and a Ratio Ki [11] of 6.3.
Work on `C=C(C)[C@@H]1CCC(C)=C[C@H]1c1c(O)cc(CCCCC)cc1O` [CANNABIDIOL] yielded an EC50 [12] of 3200 nM, an IC50 [5] of 22000 nM and an IC50 [13] of 1820 nM. The IC50 [14] was 27500 nM, the EC50 [15] was 1250 nM and the EC50 [16] was 110 nM. The IC50 [17] was 60 nM, the EC50 [18] was 1000 nM and the IC50 [19] was 445 nM. It also gave a Ki [20] of 250 nM, an EC50 [21] of 16000 nM and a Ki (D(2) dopamine receptor [22]) of 0.066 nM. It also gave a Ki (D(2) dopamine receptor [23]) of 2800 nM.
Work on `C=C(C)[C@H]1CCC(C(=O)O)=C[C@@H]1c1c(O)cc(CCCCC)cc1O` yielded a Ki (Cannabinoid receptor 1 [6]) of 13.2 nM, a Ki (Cannabinoid receptor 2 [7]) of 313 nM and a Ratio Ki [8] of 0.04.
`C=C(C)[C@H]1CCC(C)=C[C@@H]1c1c(O)cc(CCCCC)c(C(=O)OCC(O)CCC)c1O` (some centres not stated) gave an IC50 (Cannabinoid receptor 1 [24]) of 210 nM and an EC50 (Cannabinoid receptor 2 [25]) of 90 nM.
In the case of `C=C(C)[C@H]1CCC(CO)=C[C@@H]1c1c(O)cc(CCCCC)cc1O`, the Ki (Cannabinoid receptor 1 [2]) is reported as 5.3 nM, the Ki (Cannabinoid receptor 2 [3]) is reported as 101 nM and the Ratio Ki [26] is reported as 0.05.
In the case of `COc1cc(C(C)(C)CCCCCCN=C=S)cc(OC)c1[C@@H]1C=C(CO)[C@@H]2C[C@H]1C2(C)C`, the Ki (Cannabinoid receptor 1 [6]) is reported as over 1000 nM and the Ki (Cannabinoid receptor 2 [7]) is reported as 121 nM.

Source: ChEMBL document CHEMBL6078669, “Stereoisomers of cannabidiols and their pharmacological activities - A potentially novel direction for cannabinoids” (Bioorg Med Chem, 2025)
